# Reference: patent US11242337B2, “Compounds useful for treating gastrointestinal tract disorders” (Ardelyx, Inc., priority 2017, dated 2022)
# Molecular target: T1, NHE3 (Homo sapiens, UniProt P48764)
# T1 construct: expressed in transfected cells
# T1 sequence (P48764 26-834): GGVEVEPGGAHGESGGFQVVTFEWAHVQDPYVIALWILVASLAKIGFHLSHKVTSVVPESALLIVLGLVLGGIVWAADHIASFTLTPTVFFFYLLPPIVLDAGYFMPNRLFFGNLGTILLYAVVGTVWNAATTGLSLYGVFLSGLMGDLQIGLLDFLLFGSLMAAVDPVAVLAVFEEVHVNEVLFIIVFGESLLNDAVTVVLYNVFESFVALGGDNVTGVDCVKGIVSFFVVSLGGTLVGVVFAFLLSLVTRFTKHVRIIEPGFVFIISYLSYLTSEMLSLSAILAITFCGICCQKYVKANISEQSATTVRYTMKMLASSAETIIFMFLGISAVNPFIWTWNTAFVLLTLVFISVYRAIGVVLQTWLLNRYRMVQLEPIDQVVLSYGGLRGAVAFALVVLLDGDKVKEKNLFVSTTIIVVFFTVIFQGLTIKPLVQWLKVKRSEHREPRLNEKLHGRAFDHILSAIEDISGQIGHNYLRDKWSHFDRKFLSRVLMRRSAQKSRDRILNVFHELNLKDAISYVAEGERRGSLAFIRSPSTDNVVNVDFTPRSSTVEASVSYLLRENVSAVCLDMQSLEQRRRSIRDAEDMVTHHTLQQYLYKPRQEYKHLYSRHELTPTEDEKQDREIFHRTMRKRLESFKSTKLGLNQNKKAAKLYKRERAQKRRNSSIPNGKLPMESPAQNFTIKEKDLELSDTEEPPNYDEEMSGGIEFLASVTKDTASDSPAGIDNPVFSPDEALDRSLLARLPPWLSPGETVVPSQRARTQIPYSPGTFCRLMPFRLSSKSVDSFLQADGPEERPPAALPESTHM
# T1 sequence (Q99653 2-195 partner limits assumed): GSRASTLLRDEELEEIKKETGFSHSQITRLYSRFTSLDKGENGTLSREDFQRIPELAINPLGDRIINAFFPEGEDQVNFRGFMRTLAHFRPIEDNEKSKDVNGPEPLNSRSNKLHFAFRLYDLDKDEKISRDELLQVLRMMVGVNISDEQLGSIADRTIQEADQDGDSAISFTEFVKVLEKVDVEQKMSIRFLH
# Assay: Cell-based assay of NHE-3 activity (persistent inhibition), human
# Details: human Persistence, 60 min incubation then washout
# Procedure, shortened: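 Persistent inhibition: compound (0-30 μM, 60 min, RT, NaCl-HEPES pH 7.4) removed before assay. Human NHE3/NHERF2 PS120 cells were then BCECF-loaded during NH4Cl pulse (30 min, 37 °C), acidified in Na+-free buffer, and Na+ added 10 min after washout; antiport measured as initial fluorescence-ratio change per minute.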
SMILES,% inhibition,pIC50
"N#Cc1cc(Cl)cc2c1C[C@H](N1CCNCC1)[C@H]2Oc1ccc(S(=O)(=O)N[C@H]2CCN(C(=O)CCCNC(=O)NCCCCNC(=O)NCCCC(=O)N3CC[C@H](NS(=O)(=O)c4ccc(O[C@H]5c6cc(Cl)cc(C#N)c6C[C@@H]5N5CCNCC5)cc4)C3)C2)cc1 [Example 143, 4-([(1S,2S)-6-Chloro-4-cyano-2-(piperazin-1-yl)-2,3-dihydro-1H-inden-1-yl]oxy)-N—[(S)-1-(18-[(S)-3-([4-([(1S,2S)-6-chloro-4-cyano-2-(piperazin-1-yl)-2,3-dihydro-1H-inden-1-yl]oxy)phenyl]sulfonamido)pyrrolidin-1-yl]-6,13,18-trioxo-5,7,12,14-tetraazaoctadecanoyl)pyrrolidin-3-yl]benzenesulfonamide]",C (>70%),C (NHE3 pIC50 > 7)
"N#Cc1cc(Cl)cc2c1C[C@H](N1CCNCC1)[C@H]2Oc1ccc(S(=O)(=O)N[C@@H]2CCN(CCOCCNC(=O)NCCCCNC(=O)NCCOCCN3CC[C@@H](NS(=O)(=O)c4ccc(O[C@H]5c6cc(Cl)cc(C#N)c6C[C@@H]5N5CCNCC5)c(F)c4)C3)C2)cc1F [Example 109, 4-([(1S,2S)-6-Chloro-4-cyano-2-(piperazin-1-yl)-2,3-dihydro-1H-inden-1-yl]oxy)-N—[(R)-1-(20-[(R)-3-[(4-([(1S,2S)-6-chloro-4-cyano-2-(piperazin-1-yl)-2,3-dihydro-1H-inden-1-yl]oxy)-3-fluorophenyl)sulfonamide)pyrrolidin-1-yl]-7,14-dioxo-3,18-dioxa-6,8,13,15-tetraazaicosyl)pyrrolidin-3-yl]-3-fluorobenzenesulfonamide; tetra(trifluoroacetate)]",C (>70%),C (NHE3 pIC50 > 7)
"O=C(NCCCCNC(=O)NCCOCCOCCNS(=O)(=O)c1ccc(O[C@H]2c3cc(Cl)cc(Cl)c3C[C@@H]2N2CCNCC2)cc1)NCCOCCOCCNS(=O)(=O)c1ccc(O[C@H]2c3cc(Cl)cc(Cl)c3C[C@@H]2N2CCNCC2)cc1 [Example 31, 3-[2-(2-[2-[(4-[[(1S,2S)-4,6-Dichloro-2-(piperazin-1-yl)-2,3-dihydro-1H-inden-1-yl]oxy]benzene)sulfonamido]ethoxy]ethoxy)ethyl]-1-[4-([[2-(2-[2-[(4-[[(1S,2S)-4,6-dichloro-2-(piperazin-1-yl)-2,3-dihydro-1H-inden-1-yl]oxy]benzene)sulfonamido]ethoxy]ethoxy)ethyl]carbamoyl]amino)butyl]urea; bis(trifluoroacetic acid)]",C (>70%),–
"N#Cc1cc(Cl)cc2c1C[C@H](N1CCNCC1)[C@H]2Oc1ccc(S(=O)(=O)N[C@H]2CCN(CCOCCNC(=O)NCCCCNC(=O)NCCOCCN3CC[C@H](NS(=O)(=O)c4ccc(O[C@H]5c6cc(Cl)cc(C#N)c6C[C@@H]5N5CCNCC5)c(F)c4)C3)C2)cc1F [Example 110, 4-([(1S,2S)-6-Chloro-4-cyano-2-(piperazin-1-yl)-2,3-dihydro-1H-inden-1-yl]oxy)-N—[(S)-1-(20-[(S)-3-[(4-([(1S,2S)-6-chloro-4-cyano-2-(piperazin-1-yl)-2,3-dihydro-1H-inden-1-yl]oxy)-3-fluorophenyl)sulfonamide)pyrrolidin-1-yl]-7,14-dioxo-3,18-dioxa-6,8,13,15-tetraazaicosyl)pyrrolidin-3-yl]-3-fluorobenzenesulfonamide; tetra(trifluoroacetate)]",C (>70%),C (NHE3 pIC50 > 7)
"CN(C)[C@H]1Cc2c(Cl)cc(Cl)cc2[C@@H]1Oc1ccc(S(=O)(=O)NCCOCCOCCNC(=O)NCCCCNC(=O)NCCOCCOCCNS(=O)(=O)c2ccc(O[C@H]3c4cc(Cl)cc(Cl)c4C[C@@H]3N(C)C)c(F)c2)cc1F [Example 23, 3-[2-(2-[2-[(4-[[(1S,2S)-4,6-Dichloro-2-(dimethylamino)-2,3-dihydro-1H-inden-1-yl]oxy]-3-fluorobenzene)sulfonamido]ethoxy]ethoxy)ethyl]-1-[4-([[2-(2-[2-[(4-[[(1S,2S)-4,6-dichloro-2-(dimethylamino)-2,3-dihydro-1H-inden-1-yl]oxy]-3-fluorobenzene)sulfonamido]ethoxy]ethoxy)ethyl]carbamoyl]amino)butyl]urea; bis(trifluoroacetic acid)]",C (>70%),C (NHE3 pIC50 > 7)

# Other lines, results leading:
% inhibition,pIC50,SMILES
C (>70%),–,"Cc1cc(S(=O)(=O)NCCOCCOCCNC(=O)NCCCCNC(=O)NCCOCCOCCNS(=O)(=O)c2ccc(O[C@H]3c4cc(Cl)cc(Cl)c4C[C@@H]3N3CCC[C@@H](N(C)C)C3)c(C)c2)ccc1O[C@H]1c2cc(Cl)cc(Cl)c2C[C@@H]1N1CCC[C@@H](N(C)C)C1 [Example 26, 3-[2-(2-[2-[(4-[[(1S,2S)-4,6-Dichloro-2-[(3R)-3-(dimethylamino)piperidin-1-yl]-2,3-dihydro-1H-inden-1-yl]oxy]-3-methylbenzene)sulfonamido]ethoxy]ethoxy)ethyl]-1-[4-([[2-(2-[2-[4-[[(1S,2S)-4,6-dichloro-2-[(3R)-3-(dimethylamino)piperidin-1-yl]-2,3-dihydro-1H-inden-1-yl]oxy]-3-methylbenzenesulfonamido]ethoxy]ethoxy)ethyl]carbamoyl]amino)butyl]urea; bis(trifluoroacetic acid)]"
C (>70%),C (NHE3 pIC50 > 7),"Cc1cc(S(=O)(=O)N[C@H]2CCN(CCOCCNC(=O)NCCCCNC(=O)NCCOCCN3CC[C@H](NS(=O)(=O)c4ccc(O[C@H]5c6cc(Cl)cc(Cl)c6C[C@@H]5N(C)C)c(C)c4)C3)C2)ccc1O[C@H]1c2cc(Cl)cc(Cl)c2C[C@@H]1N(C)C [Example 52, 3-(2-[2-[(3S)-3-[(4-[[(1S,2S)-4,6-Dichloro-2-(dimethylamino)-2,3-dihydro-1H-inden-1-yl]oxy]-3-methylbenzene)sulfonamido]pyrrolidin-1-yl]ethoxy]ethyl)-1-(4-[[(2-[2-[(3S)-3-[(4-[[(1S,2S)-4,6-dichloro-2-(dimethylamino)-2,3-dihydro-1H-inden-1-yl]oxy]-3-methylbenzene)sulfonamido]pyrrolidin-1-yl]ethoxy]ethyl)carbamoyl]amino]butyl)urea]"
C (>70%),C (NHE3 pIC50 > 7),"Cc1cc(S(=O)(=O)N[C@H]2CCN(CCOCCNC(=O)NCCCCNC(=O)NCCOCCN3CC[C@H](NS(=O)(=O)c4ccc(O[C@H]5c6cc(Cl)cc(Cl)c6C[C@@H]5N(C)C)c(C)c4)C3=O)C2=O)ccc1O[C@H]1c2cc(Cl)cc(Cl)c2C[C@@H]1N(C)C [Example 91, 1-(2-[2-[(3S)-3-[(4-[[(1S,2S)-4,6-Dichloro-2-(dimethylamino)-2,3-dihydro-1H-inden-1-yl]oxy]-3-methylbenzene)sulfonamido]-2-oxopyrrolidin-1-yl]ethoxy]ethyl)-3-(4-[[(2-[2-[(3S)-3-[(4-[[(1S,2S)-4,6-dichloro-2-(dimethylamino)-2,3-dihydro-1H-inden-1-yl]oxy]-3-methylbenzene)sulfonamido]-2-oxopyrrolidin-1-yl]ethoxy]ethyl)carbamoyl]amino]butyl)urea]"
